In patent publication US11780826B2 (Amgen Inc., priority 2017, dated 2023):

What follows are compounds tested on Bovine cardiac myofibrils (assay: In vitro model of dose-dependent myofibril ATPase modulation (AC1.4, pyruvate kinase/lactate dehydrogenase-coupled ATPase assay at pCa25)). Settings: concentration at which ATPase activity was 1.4-fold higher than the bottom of the dose curve, mean of a minimum of two independent tests.
Type: biochemical
Summary of the method: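 Absorbance at 340 nm tracked ATP hydrolysis through pyruvate kinase/lactate dehydrogenase coupling (0.5 mM NADH, 1.5 mM PEP). Myofibrils from detergent-homogenized bovine heart, 1 mM ATP, pH 6.80, EGTA/CaCl2 buffering. Dose-response curves fitted with a four-parameter Hill equation.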

SMILES	AC1.4
NS(=O)(=O)c1cccc(C(=O)N2C[C@@H](F)C[C@@H]2C(=O)N[C@@H](c2ccc(C(F)(F)F)cc2F)C2CC2)c1 [Example 531, (4S)-N-((R)-cyclopropyl(2-fluoro-4-(trifluoromethyl)phenyl)methyl)-4-fluoro-1-(3-sulfamoylbenzoyl)-D-prolinamide]	2.553 µM
N#CC1CN(S(=O)(=O)N2CCC[C@H](C(=O)N3CCC[C@@H]3C(=O)NCc3cc(Cl)cc(C(F)(F)F)c3)C2)C1 [Example 532, N-(3-chloro-5-(trifluoromethyl)benzyl)-1-(((3S)-1-((3-cyano-1-azetidinyl)sulfonyl)-3-piperidinyl)carbonyl)-D-prolinamide]	2.6285 µM
NC(=O)C1(c2cccc(C(=O)N3CCC[C@@H]3C(=O)N[C@@H](c3ccc(C(F)(F)F)cc3F)C3CC3)c2)CC1 [Example 533, 1-(3-(1-carbamoylcyclopropyl)benzoyl)-N-((R)-cyclopropyl(2-fluoro-4-(trifluoromethyl)phenyl)methyl)-D-prolinamide]	2.5883 µM
C[C@@H](NC(=O)[C@H]1C[C@H]2C[C@H]2N1C(=O)c1cccc(S(C)(=O)=O)c1)c1cc(F)c(Cl)cc1F [Example 534, (1R,3R,5R)-N-((1R)-1-(4-chloro-2,5-difluorophenyl)ethyl)-2-(3-(methylsulfonyl)benzoyl)-2-azabicyclo[3.1.0]hexane-3-carboxamide]	2.611 µM
O=C(NCc1ccc(C(F)(F)F)cc1)[C@H]1CCCN1C(=O)[C@H]1CCCN(S(=O)(=O)N2CC(OC(F)(F)F)C2)C1 [Example 535, 1-(((3S)-1-((3-(trifluoromethoxy)-1-azetidinyl)sulfonyl)-3-piperidinyl)carbonyl)-N-(4-(trifluoromethyl)benzyl)-D-prolinamide]	2.69 µM
CCCCCOC1CN(S(=O)(=O)N2CCC[C@H](C(=O)N3CCC[C@@H]3C(=O)NCc3ccc(C(F)(F)F)cc3)C2)C1 [Example 536, 1-(((3S)-1-((3-(pentyloxy)-1-azetidinyl)sulfonyl)-3-piperidinyl)carbonyl)-N-(4-(trifluoromethyl)benzyl)-D-prolinamide]	2.696 µM
O=C(NCc1ccc(C(F)(F)F)cc1)[C@H]1COCCN1C(=O)c1cccc(S(=O)(=O)N2CC3(CC3)C2)c1 [Example 537, (R)-4-(3-((5-azaspiro[2.3]hexan-5-yl)sulfonyl)benzoyl)-N-(4-(trifluoromethyl)benzyl)morpholine-3-carboxamide]	2.7025 µM
N#CC1CN(S(=O)(=O)N2CCC[C@@H](C(=O)N3CCC[C@@H]3C(=O)NCc3ccc(C(F)(F)F)cc3F)C2)C1 [Example 539, 1-(((3R)-1-((3-cyano-1-azetidinyl)sulfonyl)-3-piperidinyl)carbonyl)-N-(2-fluoro-4-(trifluoromethyl)benzyl)-D-prolinamide]	2.753 µM
C[C@@H](NC(=O)[C@H]1CCCN1C(=O)[C@H]1CCCN(S(=O)(=O)N2CC(C#N)C2)C1)c1ccc(C#N)cc1 [Example 540, 1-(((3S)-1-((3-cyano-1-azetidinyl)sulfonyl)-3-piperidinyl)carbonyl)-N-((1R)-1-(4-cyanophenyl)ethyl)-D-prolinamide]	2.7885 µM
Cc1cc(C(=O)N2[C@@H](C(=O)N[C@@H](c3ccc(C(F)(F)F)cc3F)C3COC3)C[C@H]3C[C@H]32)c(NCCO)cn1 [Example 541, (1R,3R,5R)-N-((R)-(2-fluoro-4-(trifluoromethyl)phenyl)(3-oxetanyl)methyl)-2-((5-((2-hydroxyethyl)amino)-2-methyl-4-pyridinyl)carbonyl)-2-azabicyclo[3.1.0]hexane-3-carboxamide]	2.789 µM
CS(=O)(=O)c1cccc(C(=O)N2C(=O)OC[C@@H]2C(=O)N[C@@H](c2ccc(C(F)(F)F)cc2F)C2CC2)c1 [Example 543, (4R)-N-((R)-cyclopropyl(2-fluoro-4-(trifluoromethyl)phenyl)methyl)-3-(3-(methylsulfonyl)benzoyl)-2-oxo-1,3-oxazolidine-4-carboxamide]	2.813 µM
Cc1ccc(CNC(=O)[C@H]2CCCN2C(=O)[C@H]2CCCN(S(=O)(=O)N3CC(C#N)C3)C2)cc1C(F)(F)F [Example 544, 1-(((3S)-1-((3-cyano-1-azetidinyl)sulfonyl)-3-piperidinyl)carbonyl)-N-(4-methyl-3-(trifluoromethyl)benzyl)-D-prolinamide]	2.8175 µM
Cc1cc(C(=O)N2[C@@H](C(=O)N[C@@H](c3ccc(C(F)(F)F)cc3F)C3CC3)C[C@H]3C[C@H]32)c(NCCO)cn1 [Example 545, (1R,3R,5R)-N-((R)-cyclopropyl(2-fluoro-4-(trifluoromethyl)phenyl)methyl)-2-((5-((2-hydroxyethyl)amino)-2-methyl-4-pyridinyl)carbonyl)-2-azabicyclo[3.1.0]hexane-3-carboxamide]	2.818 µM

Next, values leading:

AC1.4	SMILES
2.6257 µM	CS(=O)(=O)c1cccc(C(=O)N2C[C@@H](F)C[C@@H]2C(=O)N[C@@H](c2ccc(C(F)(F)F)cc2)C2COC2)c1 [Example 546, (4S)-4-fluoro-1-(3-(methylsulfonyl)benzoyl)-N-((R)-3-oxetanyl(4-(trifluoromethyl)phenyl)methyl)-D-prolinamide]
2.836 µM	O=C(N[C@@H](c1ccc(C(F)(F)F)cc1F)C1CC1)[C@H]1C[C@H]2C[C@H]2N1C(=O)c1cccc(C(O)C(F)(F)F)c1 (stereo partly drawn) [Example 547, (1R,3R,5R)-N-((R)-cyclopropyl(2-fluoro-4-(trifluoromethyl)phenyl)methyl)-2-(3-(2,2,2-trifluoro-1-hydroxyethyl)benzoyl)-2-azabicyclo[3.1.0]hexane-3-carboxamide]
2.66 µM	CS(=O)(=O)c1cncc(C(=O)N2[C@@H](C(=O)N[C@@H](c3ccc(C(F)(F)F)c(F)c3)C3CC3)C[C@H]3C[C@H]32)c1 [Example 548, (1R,3R,5R)-N-((R)-cyclopropyl(3-fluoro-4-(trifluoromethyl)phenyl)methyl)-2-((5-(methylsulfonyl)-3-pyridinyl)carbonyl)-2-azabicyclo[3.1.0]hexane-3-carboxamide]
2.8405 µM	N#CC1CN(S(=O)(=O)N2CCC[C@H](C(=O)N3CCC[C@@H]3C(=O)NCc3cc(Cl)ccc3F)C2)C1 [Example 549, N-(5-chloro-2-fluorobenzyl)-1-(((3S)-1-((3-cyano-1-azetidinyl)sulfonyl)-3-piperidinyl)carbonyl)-D-prolinamide]
2.8425 µM	CS(=O)(=O)c1ccc(N2CC(C#N)C2)c(C(=O)N2CCC[C@@H]2C(=O)N[C@@H](c2ccc(C(F)(F)F)cc2F)C2CC2)c1 [Example 550, (R)-1-(2-(3-cyanoazetidin-1-yl)-5-(methylsulfonyl)benzoyl)-N—((R)-cyclopropyl(2-fluoro-4-(trifluoromethyl)phenyl)methyl)pyrrolidine-2-carboxamide]
2.8435 µM	N#Cc1ccc(CNC(=O)[C@H]2CCCN2C(=O)[C@H]2CCCN(S(=O)(=O)N3CC(C#N)C3)C2)cc1 [Example 551, 1-(((3S)-1-((3-cyano-1-azetidinyl)sulfonyl)-3-piperidinyl)carbonyl)-N-(4-cyanobenzyl)-D-prolinamide]
2.854 µM	CS(=O)(=O)c1cccc(C(=O)N2CCSCC2C(=O)N[C@@H](c2ccc(C(F)(F)F)cc2F)C2CC2)c1 (stereo partly drawn) [Example 552, N-((R)-cyclopropyl(2-fluoro-4-(trifluoromethyl)phenyl)methyl)-4-(3-(methylsulfonyl)benzoyl)thiomorpholine-3-carboxamide]
2.873 µM	O=C(N[C@@H](c1ccc(C(F)(F)F)cc1F)C1CC1)[C@H]1C[C@H]2C[C@H]2N1C(=O)c1ccccc1NC(=O)C(F)(F)F [Example 553, (1R,3R,5R)-N-((R)-cyclopropyl(2-fluoro-4-(trifluoromethyl)phenyl)methyl)-2-(2-(2,2,2-trifluoroacetamido)benzoyl)-2-azabicyclo[3.1.0]hexane-3-carboxamide]
2.688 µM	CCOc1ccc(S(C)(=O)=O)cc1C(=O)N1CCC[C@@H]1C(=O)N[C@@H](c1ccc(C(F)(F)F)cc1F)C1CC1 [Example 554, N-((R)-cyclopropyl(2-fluoro-4-(trifluoromethyl)phenyl)methyl)-1-(2-ethoxy-5-(methylsulfonyl)benzoyl)-D-prolinamide]
2.893 µM	CCc1ccnc(C(=O)N2[C@@H](C(=O)N[C@@H](c3cc(F)c(Cl)cc3F)C3COC3)C[C@H]3C[C@H]32)c1 [Example 555, (1R,3R,5R)-N-((R)-(4-chloro-2,5-difluorophenyl)(3-oxetanyl)methyl)-2-((4-ethyl-2-pyridinyl)carbonyl)-2-azabicyclo[3.1.0]hexane-3-carboxamide]
2.9075 µM	O=C(N[C@@H](c1ccc(C(F)(F)F)cc1F)C1CC1)[C@H]1CCCN1C(=O)c1cccc(C(O)C(F)(F)F)c1 (stereo partly drawn) [Example 556, (2R)-N-((R)-cyclopropyl(2-fluoro-4-(trifluoromethyl)phenyl)methyl)-1-(3-(2,2,2-trifluoro-1-hydroxyethyl)benzoyl)pyrrolidine-2-carboxamide]
2.9265 µM	COc1ccc(CNC(=O)[C@H]2CCCN2C(=O)[C@H]2CCCN(S(=O)(=O)N3CC(C#N)C3)C2)c(F)c1 [Example 557, 1-(((3S)-1-((3-cyano-1-azetidinyl)sulfonyl)-3-piperidinyl)carbonyl)-N-(2-fluoro-4-methoxybenzyl)-D-prolinamide]
2.7115 µM	CS(=O)(=O)c1cccc(C(=O)N2[C@@H](C(=O)N[C@@H](c3ccc(C(F)(F)F)cc3F)C3(O)CC3)C[C@H]3C[C@H]32)c1 [Example 559, (1R,3R,5R)-N-((S)-(2-fluoro-4-(trifluoromethyl)phenyl)(1-hydroxycyclopropyl)methyl)-2-(3-(methylsulfonyl)benzoyl)-2-azabicyclo[3.1.0]hexane-3-carboxamrde]
